From article PMC12670400, “LEKTI-Grafted Sunflower Trypsin Inhibitor: A Potential Therapeutic for Skin Diseases” (Journal of Medicinal Chemistry, 2025)
Entries after “also recorded” stand apart in the source; their conditions may differ. Bridge positions count the residues as written; N and C are the ends. Peptide text beside a SMILES is read from it.

Columns and labels:
[1] = system: KLK5-mediated PAR2 activation; experiment: PAR2-dependent intracellular calcium mobilization assay in N/TERT keratinocytes; format: cell-based; conditions: 2.5 to 40 μM, rKLK5 10 μM, preincubated one hour, n = 3, listed as lead 7
From the text: PAR2, a member of the G-protein-coupled receptor family expressed in keratinocytes, is a known downstream target of KLK5. KLK5 activates PAR2 by cleaving its extracellular N-terminal domain. This cleavage exposes a tethered ligand, which binds PAR2 intramolecularly to activate the receptor. , Activated PAR2 causes protein kinase C (PKC) and inositol 1,4,5-trisphosphate (IP3) activation, leading to calcium release from the endoplasmic reticulum, known as intracellular calcium mobilization. […] This delay is attributed to the time required for KLK5 to enzymatically cleave the extracellular N-terminal domain of PAR2, thereby exposing the tethered ligand sequence necessary to initiate receptor activation and downstream calcium signaling. […] This observation confirmed PAR2-dependent calcium mobilization and that rKLK5 could initiate PAR2 activation. The inhibition potential of lead 7 on KLK5 activity was then assessed by using this assay. rKLK5 was preincubated with lead 7 at concentrations of 2.5, 5, 20, or 40 μM for one hour before being applied to cultured keratinocytes, after which PAR2-dependent calcium mobilization was measured.
For Ki calculation, Km values for KLK5 and its substrate Boc-VPR-AMC were previously reported in the literature 8, 9, allowing the conversion from IC50 to Ki using the Cheng Prusoff equation10 Kᵢ = IC₅₀ / (1 + [S]/Kₘ) for single-site competitive binding.
Cell lines and tissue cultures
Keratinocytes isolated from the skin in a patient with genetic skin disease Netherton Syndrome (NS19) and in healthy donors (C42, C46, P8) were used in the study. […]
The immortalized keratinocyte cell line (N/TERT)13, 14 were used for the assay. […] The cells were counted, and 100 µL of the suspension, at a density of 600,000 cells/mL, was seeded into each well of a 96 -well microplate. […]
(§1) calcium signalling. […] Fluorescence excitation was set at 485 nm, and emission was recorded at 520 nm using SpectraMax® i3x plate reader. […]

[2] = system: endogenous KLK5 of healthy donor keratinocytes; experiment: KLK5 protease activity assay for culture medium of healthy donor keratinocytes; format: biochemical, human; conditions: 100 nM, 1 μM, 10 μM; p > 0.05, n = 9
Description: To evaluate the inhibition of lead 7 on endogenous KLK5 activity, media collected from cultured NS keratinocytes and healthy donor keratinocytes were incubated with lead 7 at the final concentration of 100 nM, or 1 μM, or 10 μM for one hour. Media were then concentrated, and KLK5 activity was measured. […] There were significant differences in KLK5 activity before and after treatment (p < 0.05, n = 3). […] This may be because lead 7 exerts inhibitory effects only when KLK5 activity exceeds a certain threshold, which is not reached in keratinocytes from healthy donors. It was noted that the activity of KLK5 in NS was not reduced to the levels observed in normal keratinocytes. […]
as §1
Keratinocytes were seeded in 6 well plate with the density of 0.2 × 10⁶ cells per well and cultured in RM+ medium until they reached confluency. […] The enzymatic reaction was initiated by adding 100 µL of Boc-VPR-AMC substrate (final concentration 100 µM) to each well and RFU values in samples were measured. Protease activities were expressed as nmol/g by first converting RFU readings to KLK5 equivalent concentration activity using a KLK5 standard curve, followed by normalization to total protein content

C[C@@H](O)[C@@H]1NC(=O)[C@@H]2CSSC[C@H](NC(=O)[C@H](CCC(=O)O)NC(=O)[C@@H]3CCCN3C(=O)[C@@H]3CCCN3C(=O)[C@H](CC(N)=O)NC(=O)[C@H](CO)NC(=O)[C@H](CCCNC(=N)N)NC1=O)C(=O)N[C@@H](Cc1c[nH]c3ccccc13)C(=O)N1CCC[C@H]1C(=O)N[C@@H](CC(N)=O)C(=O)NCC(=O)N[C@@H](Cc1ccccc1)C(=O)N2 [compound 7] (cyclo(GFCTRSNPPECWPN); disulfide 3-11)
PAR2-dependent calcium mobilization after rKLK5 preincubated with inhibitor [1]: dose-dependent reduction; also recorded: progressive reduction in calcium release
KLK5 activity before and after treatment, normal donor keratinocytes [2]: no significant differences
